Measurements reported in US10632125B2, “MTH1 inhibitors for treatment of inflammatory and autoimmune conditions” (THOMAS HELLEDAYS STIFTELSE FÖR MEDICINSK FORSKNING, priority 2014, dated 2020).

molecular target: MTH1 (Homo sapiens, UniProt P36639); test: MTH1 enzymatic assay (malachite green, coupled to pyrophosphatase); type: biochemical; settings: dGTP 100 μM, MTH1 6 nM; 96- or 384-well format; read-out: IC50
Description: MTH1 catalyzes the hydrolysis of dGTP to dGMP and PPi. By coupling the reaction to pyrophosphatase added in excess PPi is converted to Pi that can be detected by using the malachite green assay reagent. […] 96-well method: Briefly, the compound to be analyzed is diluted in DMSO in a 1:3 dilution series generating 12 different compound concentrations giving a final DMSO concentration of 1% in the assay well. MTH1 diluted in assay buffer (100 mM Tris-acetate, 40 mM NaCl, 10 mM magnesium acetate, 1 mM DTT and 0.005% Tween 20) fortified with E. coli pyrophosphatase (0.2 U/ml) is added to a final concentration of 6 nM. dGTP diluted in assay buffer is added to a final concentration of 100 μM. The reaction mixture is incubated for 15 minutes at 22° C. To 100 μl reaction mixture, 25 μl Malachite green assay regent (0.095% Malachite green in 17% H2SO4, 1.5% Ammonium molybdate, 0.17% Tween 20) is added, followed by incubation with shaking for 15 minutes at 22° C. The absorbance of the assay plate is read at 630 nm using a Hidex Sense Multilabel plate reader. The IC50 value is determined by fitting a dose response curve to the data points using nonlinear regression analysis and the equation Y=Bottom+(Top-Bottom)/(1+10^((Log IC50−X)*HillSlope)), where Y is the read absorbance at 630 nm and X is log [compound].
384-Well Method: The compounds to be tested are nano-dispensed, in 11 concentrations, directly in assay plates, with a final DMSO concentration <1%. The protocol and the reaction mixture are the same as for the 96-well assay, with a total reaction volume of 50 μl/well to which 10 μl of Malachite green reagent is added. All additions to the assay plates are made with multidrop.

IC50, < 200 nM:
CNc1cc(-c2ccc(OC)nc2)nc(N)n1 [Example 49, 6-(6-methoxypyridin-3-yl)-4-N-methylpyrimidine-2,4-diamine.]
CNc1cc(-c2ccc(-c3ccccc3)cc2F)nc(N)n1 [Example 50, 6-(2-fluoro-4-phenylphenyl)-4-N-methylpyrimidine-2,4-diamine.]
C=CCNc1cc(-c2ccc(Cl)cc2)nc(N)n1 [Example 53, 6-(4-chlorophenyl)-4-N-(prop-2-en-1-yl)pyrimidine-2,4-diamine]
Nc1nc(NC2CCC2)cc(-c2ccc(Cl)cc2)n1 [Example 58, 6-(4-chlorophenyl)-4-N-cyclobutylpyrimidine-2,4-diamine]
CCCCCNc1cc(-c2cccc(Cl)c2Cl)nc(N)n1 [Example 61, 6-(2,3-dichlorophenyl)-4-N-pentylpyrimidine-2,4-diamine]
CC(C)(C)Nc1cc(-c2cccc(Cl)c2Cl)nc(N)n1 [Example 63, 4-N-tert-butyl-6-(2,3-dichlorophenyl)pyrimidine-2,4-diamine]
CNc1cc(-c2ccc(Cl)c(Cl)c2)nc(N)n1 [Example 68, 6-(3,4-dichlorophenyl)-4-N-methylpyrimidine-2,4-diamine]
CNc1cc(-c2ccc(C(C)(C)C)cc2)nc(N)n1 [Example 69, 6-(4-tert-butylphenyl)-4-N-methylpyrimidine-2,4-diamine]
CNc1cc(-c2ccc(C)cc2)nc(N)n1 [Example 70, 4-N-methyl-6-(4-methylphenyl)pyrimidine-2,4-diamine]
CNc1cc(-c2ccc(Cl)cc2Cl)nc(N)n1 [Example 71, 6-(2,4-dichlorophenyl)-4-N-methylpyrimidine-2,4-diamine]
CNc1cc(-c2ccc(F)cc2F)nc(N)n1 [Example 75, 6-(2,4-difluorophenyl)-4-N-methylpyrimidine-2,4-diamine]
CNc1cc(-c2cc(F)ccc2OC)nc(N)n1 [Example 76, 6-(5-fluoro-2-methoxyphenyl)-4-N-methylpyrimidine-2,4-diamine]
CNc1cc(-c2ccc(OC)c(F)c2)nc(N)n1 [Example 82, 6-(3-fluoro-4-methoxyphenyl)-4-N-methylpyrimidine-2,4-diamine]
CNc1cc(-c2ccc(F)c(F)c2)nc(N)n1 [Example 83, 6-(3,4-difluorophenyl)-4-N-methylpyrimidine-2,4-diamine]
CNc1cc(-c2ccc(OC(C)C)cc2)nc(N)n1 [Example 84, 4-N-methyl-6-[4-(propan-2-yloxy)phenyl]pyrimidine-2,4-diamine]
CNc1cc(-c2cccc(C)c2C)nc(N)n1 [Example 86, 6-(2,3-dimethylphenyl)-4-N-methylpyrimidine-2,4-diamine]
CNc1cc(-c2ccc(Cl)c(F)c2)nc(N)n1 [Example 88, 6-(4-chloro-3-fluorophenyl)-4-N-methylpyrimidine-2,4-diamine]
CNc1cc(-c2cccc(C(F)(F)F)c2Cl)nc(N)n1 [Example 91, 6-[2-chloro-3-(trifluoromethyl)phenyl]-4-N-methylpyrimidine-2,4-diamine]
CNc1cc(-c2cccc(F)c2Cl)nc(N)n1 [Example 92, 6-(2-chloro-3-fluorophenyl)-4-N-methylpyrimidine-2,4-diamine]
CNc1cc(-c2cccc(Cl)c2C)nc(N)n1 [Example 94, 6-(3-chloro-2-methylphenyl)-4-N-methylpyrimidine-2,4-diamine]
CNc1cc(-c2cc(OC)cc(Cl)c2Cl)nc(N)n1 [Example 99, 6-(2,3-dichloro-5-methoxyphenyl)-4-N-methylpyrimidine-2,4-diamine]
CNc1cc(-c2ccc(O)cc2)nc(N)n1 [Example 100, 4-[2-amino-6-(methylamino)pyrimidin-4-yl]phenol]
CNc1cc(-c2ccc(C(=O)N3CCOCC3)c(Cl)c2)nc(N)n1 [Example 104, 6-[3-chloro-4-(morpholine-4-carbonyl)phenyl]-4-N-methylpyrimidine-2,4-diamine]
CNc1cc(-c2ccc(/C=C/C(=O)OC)cc2)nc(N)n1 [Example 106, methyl (2E)-3-{4-[2-amino-6-(methylamino)pyrimidin-4-yl]phenyl}prop-2-enoate]
CNc1cc(-c2cccc(/C=C/C(=O)OC)c2)nc(N)n1 [Example 107, methyl (2E)-3-{3-[2-amino-6-(methylamino)pyrimidin-4-yl]phenyl}prop-2-enoate]
CNc1cc(-c2ccc(C(C)=O)cc2)nc(N)n1 [Example 109, 1-(4-(2-Amino-6-(methylamino)pyrimidin-4-yl)phenyl)ethanone]
Cc1cccc(-c2cc(NC3CC3)nc(N)n2)c1C [Example 114, 4-N-cyclopropyl-6-(2,3-dimethylphenyl)pyrimidine-2,4-diamine]
CNc1cc(-c2c[nH]c3ccccc23)nc(N)n1 [Example 116, 6-(1H-indol-3-yl)-4-N-methylpyrimidine-2,4-diamine]
Cc1cccc(-c2cc(NCCc3ccccc3)nc(N)n2)c1C [Example 118, 6-(2,3-dimethylphenyl)-4-N-(2-phenylethyl)pyrimidine-2,4-diamine]
Cc1cccc(-c2nc(N)nc3c2CCCN3)c1C [Example 121, 4-(2,3-dimethylphenyl)-5H,6H,7H,8H-pyrido[2,3-d]pyrimidin-2-amine]
Nc1nc2c(c(-c3cccc(Cl)c3Cl)n1)CCCN2 [Example 122, 4-(2,3-dichlorophenyl)-5H,6H,7H,8H-pyrido[2,3-d]pyrimidin-2-amine]
Nc1nc2c(c(-c3cn(S(=O)(=O)c4ccccc4)c4ccccc34)n1)CCCN2 [Example 123, 4-[1-(benzenesulfonyl)-1H-indol-3-yl]-5H,6H,7H,8H-pyrido[2,3-d]pyrimidin-2-amine]
CNc1cc(-c2cc(F)cc(F)c2)nc(N)n1 [Example 124, 6-(3,5-difluorophenyl)-4-N-methylpyrimidine-2,4-diamine]
COc1ccc(CCNc2cc(-c3cccc(C)c3C)nc(N)n2)cc1 [Example 125, 6-(2,3-dimethylphenyl)-4-N-[2-(4-methoxyphenyl)ethyl]pyrimidine-2,4-diamine]
Cc1cccc(-c2cc(NCCc3ccc(Cl)cc3)nc(N)n2)c1C [Example 128, 4-N-[2-(4-chlorophenyl)ethyl]-6-(2,3-dimethylphenyl)pyrimidine-2,4-diamine]
Cc1cccc(-c2cc(NCC(C)c3ccccc3)nc(N)n2)c1C (stereo not shown) [Example 130, 6-(2,3-dimethylphenyl)-4-N-(2-phenylpropyl)pyrimidine-2,4-diamine]
Cc1cccc(-c2cc(NCCNc3ccccc3)nc(N)n2)c1C [Example 133, 6-(2,3-dimethylphenyl)-4-N-[2-(phenylamino)ethyl]pyrimidine-2,4-diamine]
Cc1cccc(-c2cc(NCCc3c[nH]c4ccccc34)nc(N)n2)c1C [Example 134, 6-(2,3-dimethylphenyl)-4-N-[2-(1H-indol-3-yl)ethyl]pyrimidine-2,4-diamine]
Cc1cccc(-c2cc(NCCN3CCNC3=O)nc(N)n2)c1C [Example 136, 1-(2-{[2-amino-6-(2,3-dimethylphenyl)pyrimidin-4-yl]amino}ethyl)imidazolidin-2-one]
Cc1cccc(-c2cc(NCCCN3CCCC3=O)nc(N)n2)c1C [Example 137, 1-(3-{[2-amino-6-(2,3-dimethylphenyl)pyrimidin-4-yl]amino}propyl)pyrrolidin-2-one]
CNc1cc(-c2cc(C)c(O)c(C)c2)nc(N)n1 [Example 138, 4-[2-amino-6-(methylamino)pyrimidin-4-yl]-2,6-dimethylphenol]
CNc1cc(-c2ccc(O)c(OC)c2)nc(N)n1 [Example 139, 4-[2-amino-6-(methylamino)pyrimidin-4-yl]-2-methoxyphenol]
CNc1cc(-c2ccc(O)c(F)c2)nc(N)n1 [Example 140, 4-[2-amino-6-(methylamino)pyrimidin-4-yl]-2-fluorophenol]
